This is an account of results in US8133887B2, “Oxaphenanthrene derivatives” (Merck Patent GmbH, priority 2005, dated 2012).

Test [1] has as its target human CB1 receptor (Homo sapiens, UniProt P21554). The experiment in a line: CB1 (h) receptor ligand binding (competition). The text has this:
(§1) The specific ligand binding to the receptors is defined as the difference between complete binding and non-specific binding determined in the presence of an excess of unlabelled ligand (see, for example, MUNRO, S., THOMAS, K. L. and ABU-SHAAR, M. (1993), Molecular characterisation of a peripheral receptor for cannabinoids.
(§2) The IC50 values (concentration necessary for half-maximum inhibition of the specific control binding) and Hill coefficients (nH) are obtained by non-linear regression analyses of the competition curves, with the curve matching being carried out in accordance with the Hill equation.
(§3) The inhibition constants (Ki) are calculated in accordance with the Cheng Prusoff equation (Ki=IC50/1+(L/KD)).

Test [2] addresses human CB2 receptor (Homo sapiens, UniProt P34972). The experiment in a line: CB2 (h) receptor ligand binding (competition).
Description: as §1, §2, §3

The mark [3] stands for this setting: calculated by Cheng Prusoff equation.
[4] abbreviates: half-maximum inhibition of specific control binding.
Setting [5] is: non-linear regression of competition curve.

Molecules are shown by their SMILES. pIC50, pKi: −log10 of the molar value.

Chain of human CB1 receptor (P21554 whole entry): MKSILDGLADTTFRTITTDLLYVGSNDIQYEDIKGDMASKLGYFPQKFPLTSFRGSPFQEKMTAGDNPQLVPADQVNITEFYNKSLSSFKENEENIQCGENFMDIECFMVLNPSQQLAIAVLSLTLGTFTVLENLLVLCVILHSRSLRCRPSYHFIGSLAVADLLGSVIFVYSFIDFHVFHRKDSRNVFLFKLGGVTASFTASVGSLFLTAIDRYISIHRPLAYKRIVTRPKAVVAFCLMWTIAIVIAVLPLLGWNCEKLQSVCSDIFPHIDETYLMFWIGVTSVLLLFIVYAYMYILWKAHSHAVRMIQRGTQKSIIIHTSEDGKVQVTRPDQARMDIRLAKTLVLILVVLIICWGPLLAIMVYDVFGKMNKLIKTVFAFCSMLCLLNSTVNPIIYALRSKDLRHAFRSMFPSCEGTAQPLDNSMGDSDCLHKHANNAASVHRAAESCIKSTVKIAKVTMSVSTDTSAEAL
Chain of human CB2 receptor (P34972 whole entry): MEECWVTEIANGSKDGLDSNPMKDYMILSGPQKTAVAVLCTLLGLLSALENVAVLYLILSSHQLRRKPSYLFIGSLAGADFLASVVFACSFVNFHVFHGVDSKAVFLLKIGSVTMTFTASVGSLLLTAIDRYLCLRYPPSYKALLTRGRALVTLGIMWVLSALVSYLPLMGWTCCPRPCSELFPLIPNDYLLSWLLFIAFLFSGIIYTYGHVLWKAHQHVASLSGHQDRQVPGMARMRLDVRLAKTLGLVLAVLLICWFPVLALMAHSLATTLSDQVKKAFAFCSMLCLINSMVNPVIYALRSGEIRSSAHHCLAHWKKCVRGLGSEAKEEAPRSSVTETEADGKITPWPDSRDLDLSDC

As for `CCCCCc1cc(O)c2c(c1)OC(F)(F)C1CCCCC21` (stereo not drawn) [Compound Ia], the pKi in test [1] (setting [3]) was 5.72; in test [2] (setting [3]) it was 6.04. For the same compound, the pIC50 is 5.66 in test [1] (setting [4]) and 5.85 in test [2] (setting [4]). Besides, the figures for the “nH (Hill coefficient)” value in test [1] (setting [5]) and in test [2] (setting [5]) were 1.5 and 0.9, respectively.

Broadly, the pKi is −log10 of the Ki, conventionally taken in molar units. The term pIC50 denotes the IC50 on a negative log10 scale, so that one unit is a factor of ten.
